According to ChEMBL document CHEMBL3046732, “Synthesis and biological evaluation of new [1,3,4]thiadiazepino[7,6-b]quinolin-2-amines as potent anti-microbial agents” (2013):

Key:
Curvularia australiensis = assay: Antimicrobial activity against Curvularia australiensis assessed as growth inhibition by microdilution method; format: functional
Aspergillus niger = assay: Antimicrobial activity against Aspergillus niger assessed as growth inhibition by microdilution method; format: functional
Alternaria alternata = assay: Antimicrobial activity against Alternaria alternata assessed as growth inhibition by microdilution method; format: functional
Aspergillus flavus = assay: Antimicrobial activity against Aspergillus flavus assessed as growth inhibition by microdilution method; format: functional
Trichoderma reesei = assay: Antimicrobial activity against Trichoderma reesei assessed as growth inhibition by microdilution method; format: functional
Escherichia coli = assay: Antimicrobial activity against Escherichia coli assessed as growth inhibition by microdilution method
Bacillus subtilis = assay: Antimicrobial activity against Bacillus subtilis assessed as growth inhibition by microdilution method
Staphylococcus aureus = assay: Antimicrobial activity against Staphylococcus aureus assessed as growth inhibition by microdilution method
Klebsiella aerogenes = assay: Antimicrobial activity against Enterobacter aerogenes assessed as growth inhibition by microdilution method
Streptococcus pyogenes = assay: Antimicrobial activity against Streptococcus pyogenes assessed as growth inhibition by microdilution method
Salmonella typhimurium = assay: Antimicrobial activity against Salmonella enterica subsp. enterica serovar Typhimurium assessed as growth inhibition by microdilution method

Row | MIC (Curvularia australiensis) | MIC (Aspergillus niger) | MIC (Alternaria alternata) | MIC (Aspergillus flavus) | MIC (Trichoderma reesei) | MIC (Escherichia coli) | MIC (Bacillus subtilis) | MIC (Staphylococcus aureus) | MIC (Klebsiella aerogenes) | MIC (Streptococcus pyogenes) | MIC (Salmonella typhimurium) | SMILES
1 | 500 µg/mL | 500 µg/mL | 500 µg/mL | 500 µg/mL | 500 µg/mL | 1000 µg/mL | 60 µg/mL | 1000 µg/mL | 500 µg/mL | 1000 µg/mL | 60 µg/mL | Cc1c(Cl)ccc2cc3c(nc12)SC(NCc1ccccc1)=NN=C3
2 | 1000 µg/mL | 1000 µg/mL | 1000 µg/mL | 1000 µg/mL | 1000 µg/mL | 500 µg/mL | 250 µg/mL | 250 µg/mL | 250 µg/mL | 250 µg/mL | 125 µg/mL | Cc1c(Cl)ccc2cc3c(nc12)SC(NCCN1CCOCC1)=NN=C3
3 | > 1000 µg/mL | 1000 µg/mL | 1000 µg/mL | 1000 µg/mL | 500 µg/mL | 1000 µg/mL | 1000 µg/mL | 1000 µg/mL | 1000 µg/mL | 1000 µg/mL | 1000 µg/mL | Cc1cccc2cc3c(nc12)SC(Nc1ccccc1)=NN=C3
4 | 1000 µg/mL | > 1000 µg/mL | 1000 µg/mL | 1000 µg/mL | 1000 µg/mL | 500 µg/mL | 500 µg/mL | 1000 µg/mL | 500 µg/mL | 1000 µg/mL | 250 µg/mL | Cc1cccc2cc3c(nc12)SC(Nc1ccccc1F)=NN=C3
5 | 1000 µg/mL | 1000 µg/mL | 500 µg/mL | 1000 µg/mL | 500 µg/mL | 1000 µg/mL | 1000 µg/mL | 500 µg/mL | 1000 µg/mL | 500 µg/mL | 500 µg/mL | Cc1cccc2cc3c(nc12)SC(Nc1cccc(F)c1)=NN=C3
6 | 1000 µg/mL | 1000 µg/mL | 500 µg/mL | 1000 µg/mL | 500 µg/mL | 250 µg/mL | 500 µg/mL | 250 µg/mL | 500 µg/mL | 250 µg/mL | 500 µg/mL | Cc1cccc2cc3c(nc12)SC(Nc1ccc(F)cc1)=NN=C3
7 | 500 µg/mL | > 1000 µg/mL | 1000 µg/mL | 1000 µg/mL | 1000 µg/mL | > 1000 µg/mL | > 1000 µg/mL | > 1000 µg/mL | > 1000 µg/mL | > 1000 µg/mL | > 1000 µg/mL | Cc1cccc2cc3c(nc12)SC(Nc1ccccc1Cl)=NN=C3
8 | 1000 µg/mL | 500 µg/mL | 500 µg/mL | 1000 µg/mL | 1000 µg/mL | 1000 µg/mL | 1000 µg/mL | 1000 µg/mL | 1000 µg/mL | 1000 µg/mL | 1000 µg/mL | Cc1cccc2cc3c(nc12)SC(Nc1cccc(Cl)c1)=NN=C3
9 | 500 µg/mL | 1000 µg/mL | 500 µg/mL | 250 µg/mL | 1000 µg/mL | 1000 µg/mL | 1000 µg/mL | 1000 µg/mL | 1000 µg/mL | 1000 µg/mL | 1000 µg/mL | Cc1cccc2cc3c(nc12)SC(Nc1ccc(Cl)cc1)=NN=C3
10 | 500 µg/mL | 500 µg/mL | 1000 µg/mL | 125 µg/mL | 125 µg/mL | 1000 µg/mL | 1000 µg/mL | 1000 µg/mL | 1000 µg/mL | 1000 µg/mL | 1000 µg/mL | Cc1ccccc1NC1=NN=Cc2cc3cccc(C)c3nc2S1
11 | 1000 µg/mL | 1000 µg/mL | 1000 µg/mL | 500 µg/mL | 500 µg/mL | 1000 µg/mL | 1000 µg/mL | 1000 µg/mL | 1000 µg/mL | 1000 µg/mL | 1000 µg/mL | Cc1ccc(NC2=NN=Cc3cc4cccc(C)c4nc3S2)cc1
12 | 1000 µg/mL | 1000 µg/mL | 500 µg/mL | 500 µg/mL | 250 µg/mL | 1000 µg/mL | 1000 µg/mL | 1000 µg/mL | 1000 µg/mL | 1000 µg/mL | 1000 µg/mL | Cc1cccc(C)c1NC1=NN=Cc2cc3cccc(C)c3nc2S1
13 | 500 µg/mL | 1000 µg/mL | 500 µg/mL | 500 µg/mL | 250 µg/mL | 1000 µg/mL | 1000 µg/mL | 1000 µg/mL | 1000 µg/mL | 1000 µg/mL | 1000 µg/mL | Cc1ccc(NC2=NN=Cc3cc4cccc(C)c4nc3S2)c(C)c1
14 | 500 µg/mL | 500 µg/mL | 500 µg/mL | 1000 µg/mL | 500 µg/mL | 500 µg/mL | 250 µg/mL | 500 µg/mL | 1000 µg/mL | 500 µg/mL | 1000 µg/mL | CCc1ccc(NC2=NN=Cc3cc4cccc(C)c4nc3S2)cc1
